According to US20070128217A1 (priority 2003, published 2007):

How the values were obtained:
[1] = test system: antibodies in sera from SARS patients (sera 1a, 1b, 2, 6, 37, 62, London, SARS-yellow, SARS-green); assay type: binding, human; parameters: Binding of serum 6 to linear peptides of protein X1 of SARS-CoV Urbani / Binding of serum 37 to linear peptides of protein X1 of SARS-CoV Urbani / Binding of serum 6 to looped/cyclic peptide (PEPSCAN-ELISA) / Binding of serum 37 to looped/cyclic peptide (PEPSCAN-ELISA) / Binding of serum 37 to looped/cyclic peptides of protein X1 of SARS-CoV Urbani / Binding of serum 6 to linear peptides of protein X2 / Binding of serum 37 to linear peptides of protein X2 / Binding of serum 37 to looped/cyclic peptides of protein X2 of SARS-CoV Urbani / Binding of serum 6 to linear peptides of protein M of SARS-CoV Urbani / Binding of serum 37 to linear peptides of protein M of SARS-CoV Urbani / Binding of serum 6 to looped/cyclic peptides of protein M of SARS-CoV Urbani / Binding of serum 37 to looped/cyclic peptides of protein M of SARS-CoV Urbani / Binding of serum 6 to linear peptides of protein X3 of SARS-CoV Urbani / Binding of serum 37 to linear peptides of protein X3 of SARS-CoV Urbani / Binding of serum 37 to looped/cyclic peptides of protein X3 of SARS-CoV Urbani / Binding of serum 6 to linear peptides of protein X4 of SARS-CoV Urbani / Binding of serum 37 to linear peptides of protein X4 of SARS-CoV Urbani / Binding of serum 37 to looped/cyclic peptides of protein X4 of SARS-CoV Urbani / Binding of serum 6 to linear peptides of protein X5 of SARS-CoV Urbani / Binding of serum 37 to linear peptides of protein X5 of SARS-CoV Urbani / Binding of serum 37 to looped/cyclic peptides of protein X5 of SARS-CoV Urbani / Binding of serum 6 to linear peptides of protein N of SARS-CoV Urbani / Binding of serum 37 to linear peptides of protein N of SARS-CoV Urbani / Binding of serum 6 to linear peptide (PEPSCAN-ELISA) / Binding of serum 1a to looped/cyclic peptides of protein N of SARS-CoV Urbani / Binding of serum 1b to looped/cyclic peptides of protein N of SARS-CoV Urbani / Binding of serum 2 to looped/cyclic peptides of protein N of SARS-CoV Urbani / Binding of serum 6 to looped/cyclic peptides of protein N of SARS-CoV Urbani / Binding of serum 37 to looped/cyclic peptides of protein N of SARS-CoV Urbani / Binding of serum 62 to looped/cyclic peptides of protein N of SARS-CoV Urbani / Binding of serum London to looped/cyclic peptides of protein N of SARS-CoV Urbani / Binding of serum SARS-green to looped/cyclic peptides of protein N of SARS-CoV Urbani: unit not given here
[2] = test system: control sera (pooled serum of ten healthy LUMC hospital workers; commercial negative donor pooled serum from the Dutch bloodbank); assay type: binding, human; parameters: Binding of Control serum LUMC to linear peptides / Binding of Control serum Blood-bank to linear peptides / Binding of Control serum LUMC to looped peptides / Binding of Control Serum Blood-Bank to Looped peptides / Binding of Control serum LUMC to linear peptides of the protein M of SARS-CoV Urbani / Binding of Control serum Blood-bank to linear peptides of the protein M of SARS-CoV Urbani / Binding of Control serum LUMC to looped peptides of the protein M of SARS-CoV Urbani / Binding of Control Serum Blood-Bank to Looped peptides of the protein M of SARS-CoV Urbani: unit not given here
[3] = test system: rabbit serum obtained by immunizing a rabbit with the SARS-CoV strain Frankfurt 1; assay type: binding; parameters: Binding of a rabbit serum to linear peptides / Binding of a rabbit serum to looped peptides / Rabbit serum linear peptides / Rabbit serum looped peptides / Binding of a rabbit serum to linear peptides of protein N of SARS-CoV Urbani (Rabbit serum linear peptides) / Binding of a rabbit serum to looped/cyclic peptides of protein N of SARS-CoV Urbani (Rabbit serum looped peptides): unit not given here
[4] = test system: recombinant human anti-SARS-CoV antibody 03-018; assay type: binding; parameters: Binding of antibody 03-018 to linear peptides of the N protein of SARS-CoV Urbani / Binding of antibody 03-018 to looped/cyclic peptides of the N protein of SARS-CoV Urbani: unit not given here

Sequence | Binding of serum 1a to linear peptide (PEPSCAN-ELISA) [1] | Binding of serum 1a to looped/cyclic peptides of protein N of SARS-CoV Urbani [1] | Binding of serum 1b to linear peptide (PEPSCAN-ELISA) [1] | Binding of serum 1b to looped/cyclic peptides of protein N of SARS-CoV Urbani [1] | Binding of serum 2 to linear peptide (PEPSCAN-ELISA) [1] | Binding of serum 2 to looped/cyclic peptides of protein N of SARS-CoV Urbani [1] | Binding of serum 6 to looped/cyclic peptides of protein N of SARS-CoV Urbani [1] | Binding of serum 37 to looped/cyclic peptides of protein N of SARS-CoV Urbani [1] | Binding of serum 62 to looped/cyclic peptides of protein N of SARS-CoV Urbani [1] | Binding of serum London to looped/cyclic peptides of protein N of SARS-CoV Urbani [1] | Binding of serum SARS-green to looped/cyclic peptides of protein N of SARS-CoV Urbani [1] | Binding of serum SARS-yellow to looped/cyclic peptides of protein N of SARS-CoV Urbani [1] | Binding of Control Serum Blood-Bank to Looped peptides [2] | Binding of Control serum Blood-bank to linear peptides [2] | Binding of Control serum LUMC to linear peptides [2] | Binding of Control serum LUMC to looped peptides [2] | Binding of a rabbit serum to linear peptides of protein N of SARS-CoV Urbani (Rabbit serum linear peptides) [3] | Binding of a rabbit serum to looped/cyclic peptides of protein N of SARS-CoV Urbani (Rabbit serum looped peptides) [3] | Binding of antibody 03-018 to linear peptides of the N protein of SARS-CoV Urbani [4] | Binding of antibody 03-018 to looped/cyclic peptides of the N protein of SARS-CoV Urbani [4] | further results
RLNQLESKVSGKGQQ | 0.3 | 0.4 | 0.2 | 0.3 | 0.3 | 0.5 | 0.4 | 0.6 | 0.7 | 0.4 | 0.4 | 0.8 | 0.6 | 0.8 | 0.7 | 0.7 | 0.2 | 0.6 | 0.1 | 0.2 | Binding of serum 6 to linear peptide (PEPSCAN-ELISA) [1]: 0.2; Binding of serum 37 to linear peptide (PEPSCAN-ELISA) [1]: 0.7; Binding of serum 62 to linear peptide (PEPSCAN-ELISA) [1]: 0.9; Binding of serum London to linear peptide (PEPSCAN-ELISA) [1]: 0.6; Binding of serum SARS-green to linear peptide (PEPSCAN-ELISA) [1]: 0.4; Binding of serum SARS-yellow to linear peptide (PEPSCAN-ELISA) [1]: 0.7
RNGARPKQRRPQGLP | – | 0.2 | – | 0.1 | – | 0.3 | 0.2 | 0.5 | 0.4 | 0.4 | 0.3 | 0.2 | 0.5 | 0.8 | 0.6 | 0.6 | 0.1 | 0.2 | 0.1 | 0.3 | Binding of serum 1a to linear peptides of protein N of SARS-CoV Urbani [1]: 0.2; Binding of serum 1b to linear peptides of protein N of SARS-CoV Urbani [1]: 0.1; Binding of serum 2 to linear peptides of protein N of SARS-CoV Urbani [1]: 0.2; Binding of serum 6 to linear peptides of protein N of SARS-CoV Urbani [1]: 0.2; Binding of serum 37 to linear peptides of protein N of SARS-CoV Urbani [1]: 0.6; Binding of serum 62 to linear peptides of protein N of SARS-CoV Urbani [1]: 0.6; Binding of serum London to linear peptides of protein N of SARS-CoV Urbani [1]: 0.5; Binding of serum SARS-green to linear peptides of protein N of SARS-CoV Urbani [1]: 0.4; Binding of serum SARS-yellow to linear peptides of protein N of SARS-CoV Urbani [1]: 0.5
RNPNNNAATVLQLPQ | – | 0.4 | – | 0.4 | – | 0.7 | 0.3 | 0.8 | 0.9 | 0.6 | 0.6 | 0.4 | 0.8 | 0.7 | 0.7 | 0.9 | 0.1 | 0.8 | 0.1 | 0.2 | Binding of serum 1a to linear peptides of protein N of SARS-CoV Urbani [1]: 0.2; Binding of serum 1b to linear peptides of protein N of SARS-CoV Urbani [1]: 0.1; Binding of serum 2 to linear peptides of protein N of SARS-CoV Urbani [1]: 0.3; Binding of serum 6 to linear peptides of protein N of SARS-CoV Urbani [1]: 0.2; Binding of serum 37 to linear peptides of protein N of SARS-CoV Urbani [1]: 0.6; Binding of serum 62 to linear peptides of protein N of SARS-CoV Urbani [1]: 0.7; Binding of serum London to linear peptides of protein N of SARS-CoV Urbani [1]: 0.5; Binding of serum SARS-green to linear peptides of protein N of SARS-CoV Urbani [1]: 0.3; Binding of serum SARS-yellow to linear peptides of protein N of SARS-CoV Urbani [1]: 0.6
RNSTPGSSRGNSPAR | 0.6 | 0.4 | 0.3 | 0.3 | 0.3 | 0.4 | 0.3 | 0.5 | 0.5 | 0.5 | 0.1 | 0.5 | 0.6 | 0.9 | 0.8 | 0.7 | – | – | 0.1 | 0.2 | Binding of serum 6 to linear peptide (PEPSCAN-ELISA) [1]: 0.2; Binding of serum 37 to linear peptide (PEPSCAN-ELISA) [1]: 0.7; Binding of serum 62 to linear peptide (PEPSCAN-ELISA) [1]: 0.7; Binding of serum London to linear peptide (PEPSCAN-ELISA) [1]: 0.4; Binding of serum SARS-green to linear peptide (PEPSCAN-ELISA) [1]: 0.4; Binding of serum SARS-yellow to linear peptide (PEPSCAN-ELISA) [1]: 0.7; Recognition of the peptide by the rabbit serum [3]: recognized
